Columns and labels:
[1] = tested on: P. falciparum male gametocytes; experiment: P. falciparum Dual Gamete Formation Assay (PfDGFA), male readout (exflagellation); type: cell-based, Plasmodium falciparum NF54; settings: for Average inhibition male (%): average of replicates; for % inhibition male (individual replicates) R1: replicate R1; for % inhibition male (individual replicates) R3: replicate R3; for % inhibition male (individual replicates) R4: replicate R4; for Activity: hit = >50% inhibition in male or female readout in at least 3 replicates, 0 = no class assigned
How it was run: (§1)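 Male and female gamete formation were quantified by microscopy image analysis following 24 h incubation of mature NF54 gametocytes with compound and activation at 28°C with xanthurenic acid.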

[2] = tested on: P. falciparum female gametocytes; experiment: P. falciparum Dual Gamete Formation Assay (PfDGFA), female readout (Pfs25-positive female gametes); type: cell-based, Plasmodium falciparum NF54; settings: for Average inhibition female (%): average of replicates; for % inhibition female (individual replicates) R1: replicate R1; for % inhibition female (individual replicates) R3: replicate R3; for % inhibition female (individual replicates) R4: replicate R4
How it was run: as §1

[3] = 2µM, 24h preincubation with gametocytes prior to induction of gametogenesis
[4] = 2µM, 24h preincubation, number of replicates with >50% inhibition in the male readout
[5] = 2µM, 24h preincubation, number of replicates with >50% inhibition in the female readout
[6] = 2µM, 24h preincubation, hits selected on >50% inhibition in the male readout across replicates
[7] = PfDGFA at 2µM, 24h preincubation
[8] = 2µM, 24h preincubation, hits selected on >50% inhibition in the female readout across replicates
[9] = PfDGFA at 2µM, 24h preincubation with gametocytes prior to induction of gametogenesis
[10] = PfDGFA at 2µM, 24h preincubation with gametocytes

FC(F)(F)c1ccc2[nH]c(-c3ccc(-c4ccc(CNCCN5CCNCC5)cc4)s3)nc2c1.O=C(O)C(F)(F)F [TCMDC-132862]
Average inhibition male (%) [1, 3]: 44.8% | % inhibition male (individual replicates) R1 [1, 3]: 46.6% | % inhibition male (individual replicates) R3 [1, 3]: 56.6% | % inhibition male (individual replicates) R4 [1, 3]: 89.1% | HitlevelM [1, 4]: 2 | Average inhibition female (%) [2, 3]: 20.7% | % inhibition female (individual replicates) R1 [2, 3]: 21.1% | % inhibition female (individual replicates) R3 [2, 3]: 13.2% | % inhibition female (individual replicates) R4 [2, 3]: 20.9% | HitlevelF [2, 5]: 0

Fc1ccc2[nH]c(-c3cccc(-c4ccc(CNCCN5CCNCC5)cc4)c3)nc2c1.O=C(O)C(F)(F)F [TCMDC-132863]
Average inhibition male (%) [1, 3]: 43.0% | % inhibition male (individual replicates) R1 [1, 3]: 23.0% | % inhibition male (individual replicates) R3 [1, 3]: 12.3% | % inhibition male (individual replicates) R4 [1, 3]: 70.2% | HitlevelM [1, 6]: 2 | Activity [1, 7]: 0 | Average inhibition female (%) [2, 3]: 14.3% | % inhibition female (individual replicates) R1 [2, 3]: 16.6% | % inhibition female (individual replicates) R3 [2, 3]: -21.5% | % inhibition female (individual replicates) R4 [2, 3]: 42.6% | HitlevelF [2, 8]: 0

Cc1cccc2nc(-c3cccc(-c4cccc(CNCCN5CCNCC5)c4)c3)[nH]c12.O=C(O)C(F)(F)F [TCMDC-132873]
Average inhibition male (%) [1, 3]: 29.1% | % inhibition male (individual replicates) R1 [1, 3]: 24.4% | % inhibition male (individual replicates) R3 [1, 3]: 9.9% | % inhibition male (individual replicates) R4 [1, 3]: 46.2% | HitlevelM [1, 6]: 0 | Activity [1, 7]: 0 | Average inhibition female (%) [2, 3]: 9.7% | % inhibition female (individual replicates) R1 [2, 3]: 14.0% | % inhibition female (individual replicates) R3 [2, 3]: 9.9% | % inhibition female (individual replicates) R4 [2, 3]: 0.33% | HitlevelF [2, 8]: 0

CN(c1ncc(-c2cccc(CNCc3ccccc3O)c2)cn1)C1CCCCC1 [TCMDC-133137]
% inhibition male (individual replicates) R1 [1, 9]: -18.7% | % inhibition male (individual replicates) R4 [1, 9]: -25.6% | Average inhibition male (%) [1, 7]: -17.4% | % inhibition female (individual replicates) R1 [2, 9]: 2.5% | % inhibition female (individual replicates) R3 [2, 9]: -2.1% | % inhibition female (individual replicates) R4 [2, 9]: 17.4% | Average inhibition female (%) [2, 7]: 2.8%

Cl.c1cc(CNC2Cc3ccccc3C2)cc(-c2cnc(N3CCNCC3)nc2)c1 [TCMDC-133140]
Average inhibition male (%) [1, 3]: 40.3% | % inhibition male (individual replicates) R1 [1, 3]: 37.9% | % inhibition male (individual replicates) R3 [1, 3]: 14.1% | % inhibition male (individual replicates) R4 [1, 3]: 54.9% | HitlevelM [1, 4]: 2 | Average inhibition female (%) [2, 3]: 27.8% | % inhibition female (individual replicates) R1 [2, 3]: 25.6% | % inhibition female (individual replicates) R3 [2, 3]: 8.0% | % inhibition female (individual replicates) R4 [2, 3]: 43.1% | HitlevelF [2, 5]: 0

CN1CCCC1CCNCc1cccc(-c2cnc(N(C)C3CCCCC3)nc2)c1 (centres unmarked) [TCMDC-133141]
Average inhibition male (%) [1, 10]: 74.0% | % inhibition male (individual replicates) R1 [1, 10]: 71.5% | % inhibition male (individual replicates) R3 [1, 10]: 68.9% | % inhibition male (individual replicates) R4 [1, 10]: 81.6% | HitlevelM ([1]; number of replicates with >50% inhibition in the male readout, 2µM): 4 | Average inhibition female (%) [2, 10]: 34.0% | % inhibition female (individual replicates) R1 [2, 10]: 30.5% | % inhibition female (individual replicates) R3 [2, 10]: 11.1% | % inhibition female (individual replicates) R4 [2, 10]: 42.8% | HitlevelF ([2]; number of replicates with >50% inhibition in the female readout, 2µM): 1

CCCN(CC1CC1)c1ncc(-c2cccc(CNCCC3CCCN3C)c2)cn1 (centres unmarked) [TCMDC-133142]
Average inhibition male (%) [1, 3]: 41.7% | % inhibition male (individual replicates) R1 [1, 3]: 43.1% | % inhibition male (individual replicates) R3 [1, 3]: 28.4% | % inhibition male (individual replicates) R4 [1, 3]: 53.6% | HitlevelM [1, 6]: 1 | Activity [1, 7]: 0 | Average inhibition female (%) [2, 3]: 16.5% | % inhibition female (individual replicates) R1 [2, 3]: 26.9% | % inhibition female (individual replicates) R3 [2, 3]: 12.7% | % inhibition female (individual replicates) R4 [2, 3]: -0.1% | HitlevelF [2, 8]: 0

CN(CCc1ccccc1)c1ncc(-c2cccc(CNCCC3CCCN3C)c2)cn1 (centres unmarked) [TCMDC-133143]
Average inhibition male (%) [1, 3]: 57.0% | % inhibition male (individual replicates) R1 [1, 3]: 66.7% | % inhibition male (individual replicates) R3 [1, 3]: 31.4% | % inhibition male (individual replicates) R4 [1, 3]: 52.9% | HitlevelM [1, 4]: 3 | Average inhibition female (%) [2, 3]: 35.0% | % inhibition female (individual replicates) R1 [2, 3]: 22.5% | % inhibition female (individual replicates) R3 [2, 3]: 13.4% | % inhibition female (individual replicates) R4 [2, 3]: 55.4% | HitlevelF [2, 5]: 1

CN1CCCC1CCNCc1cccc(-c2cnc(N3CCCC(C)(C)C3)nc2)c1 (centres unmarked) [TCMDC-133144]
Average inhibition male (%) [1, 3]: 57.1% | % inhibition male (individual replicates) R1 [1, 3]: 64.8% | % inhibition male (individual replicates) R3 [1, 3]: 37.3% | % inhibition male (individual replicates) R4 [1, 3]: 70.2% | HitlevelM [1, 4]: 3 | Average inhibition female (%) [2, 3]: 21.7% | % inhibition female (individual replicates) R1 [2, 3]: 23.0% | % inhibition female (individual replicates) R3 [2, 3]: 21.4% | % inhibition female (individual replicates) R4 [2, 3]: 13.1% | HitlevelF [2, 5]: 0

O=C(Nc1ccsc1)Nc1cccc(-c2ccc(-c3nc4cc(C(F)(F)F)ccc4[nH]3)cc2)c1 [TCMDC-133210]
% inhibition male (individual replicates) R1 [1, 9]: -6.9% | % inhibition male (individual replicates) R3 [1, 9]: -21.6% | % inhibition male (individual replicates) R4 [1, 9]: 0.9% | Average inhibition male (%) [1, 7]: -14.6% | % inhibition female (individual replicates) R1 [2, 9]: 5.3% | % inhibition female (individual replicates) R3 [2, 9]: -25.6% | % inhibition female (individual replicates) R4 [2, 9]: -2.5% | Average inhibition female (%) [2, 7]: -7.9%

CCCCCN1CCCC1CNS(=O)(=O)c1cccc(C(=O)Nc2cccc(C#N)c2)c1.O=C(O)C(F)(F)F (centres unmarked) [TCMDC-133690]
% inhibition male (individual replicates) R1 [1, 9]: -0.3% | % inhibition male (individual replicates) R4 [1, 9]: 15.0% | Average inhibition male (%) [1, 7]: 7.9% | % inhibition female (individual replicates) R1 [2, 9]: 2.9% | % inhibition female (individual replicates) R3 [2, 9]: -5.0% | % inhibition female (individual replicates) R4 [2, 9]: 6.8% | Average inhibition female (%) [2, 7]: -0.08%

Cl.NCc1ccc(-c2ccc3c(N)nccc3c2)cc1 [TCMDC-133718]
Average inhibition male (%) [1, 3]: 18.4% | % inhibition male (individual replicates) R1 [1, 3]: -0.6% | % inhibition male (individual replicates) R3 [1, 3]: -25.8% | % inhibition male (individual replicates) R4 [1, 3]: 49.6% | HitlevelM [1, 4]: 1 | Average inhibition female (%) [2, 3]: 21.1% | % inhibition female (individual replicates) R1 [2, 3]: 11.2% | % inhibition female (individual replicates) R3 [2, 3]: 8.8% | % inhibition female (individual replicates) R4 [2, 3]: 10.1% | HitlevelF [2, 5]: 1

Cc1cccc(-c2cccc(CNc3nc(NCCc4ccc(O)cc4)nc(N4CCNCC4)n3)c2)c1.O=C(O)C(F)(F)F [TCMDC-133810]
Average inhibition male (%) [1, 3]: -4.6% | % inhibition male (individual replicates) R1 [1, 3]: -4.0% | % inhibition male (individual replicates) R3 [1, 3]: -16.3% | % inhibition male (individual replicates) R4 [1, 3]: 16.2% | HitlevelM [1, 6]: 0 | Activity [1, 7]: 0 | Average inhibition female (%) [2, 3]: 7.6% | % inhibition female (individual replicates) R1 [2, 3]: 16.4% | % inhibition female (individual replicates) R3 [2, 3]: -13.0% | % inhibition female (individual replicates) R4 [2, 3]: 18.6% | HitlevelF [2, 8]: 0

CN1CCC(N2CCN(Cc3cccc(-c4ccc(-c5nc6cc(F)ccc6[nH]5)cc4)c3)CC2)CC1.O=C(O)C(F)(F)F [TCMDC-133858]
Average inhibition male (%) [1, 3]: 26.9% | % inhibition male (individual replicates) R1 [1, 3]: 35.0% | % inhibition male (individual replicates) R3 [1, 3]: -5.5% | % inhibition male (individual replicates) R4 [1, 3]: 46.2% | HitlevelM [1, 6]: 0 | Activity [1, 7]: 0 | Average inhibition female (%) [2, 3]: 6.0% | % inhibition female (individual replicates) R1 [2, 3]: 1.0% | % inhibition female (individual replicates) R3 [2, 3]: -3.8% | % inhibition female (individual replicates) R4 [2, 3]: 20.5% | HitlevelF [2, 8]: 0

Cc1cccc2nc(-c3ccc(-c4ccc(CN5CCC(N)C5)cc4)s3)[nH]c12.O=C(O)C(F)(F)F (centres unmarked) [TCMDC-133862]
Average inhibition male (%) [1, 3]: -1.0% | % inhibition male (individual replicates) R1 [1, 3]: -13.8% | % inhibition male (individual replicates) R4 [1, 3]: 7.3% | HitlevelM [1, 6]: 0 | Activity [1, 7]: 0 | Average inhibition female (%) [2, 3]: 4.0% | % inhibition female (individual replicates) R1 [2, 3]: 5.8% | % inhibition female (individual replicates) R3 [2, 3]: 5.7% | % inhibition female (individual replicates) R4 [2, 3]: 2.9% | HitlevelF [2, 8]: 0

Cc1cccc2nc(-c3ccc(-c4ccc(CN5CCN(C6CCN(C)CC6)CC5)cc4)s3)[nH]c12.O=C(O)C(F)(F)F [TCMDC-133866]
Average inhibition male (%) [1, 3]: 12.4% | % inhibition male (individual replicates) R1 [1, 3]: 12.8% | % inhibition male (individual replicates) R3 [1, 3]: 24.6% | % inhibition male (individual replicates) R4 [1, 3]: 21.2% | HitlevelM [1, 4]: 0 | Average inhibition female (%) [2, 3]: 32.5% | % inhibition female (individual replicates) R1 [2, 3]: 26.9% | % inhibition female (individual replicates) R3 [2, 3]: 41.8% | % inhibition female (individual replicates) R4 [2, 3]: 27.5% | HitlevelF [2, 5]: 0

NC1CCN(Cc2ccc(-c3ccc(-c4nc5ccccc5[nH]4)cc3)cc2)C1.O=C(O)C(F)(F)F (centres unmarked) [TCMDC-133868]
Average inhibition male (%) [1, 3]: 53.2% | % inhibition male (individual replicates) R1 [1, 3]: 65.7% | % inhibition male (individual replicates) R3 [1, 3]: 18.3% | % inhibition male (individual replicates) R4 [1, 3]: 71.6% | HitlevelM [1, 4]: 3 | Average inhibition female (%) [2, 3]: 15.3% | % inhibition female (individual replicates) R1 [2, 3]: 0.6% | % inhibition female (individual replicates) R3 [2, 3]: -10.8% | % inhibition female (individual replicates) R4 [2, 3]: 34.5% | HitlevelF [2, 5]: 0
